Data on four compounds can be found in patent US9708314B2, “Heterocyclic amide compound” (NISSAN CHEMICAL INDUSTRIES, LTD., priority 2013, dated 2017).

Common to all, as to assay type: in vivo
Assay [1] concerns Echinochloa oryzacola Vasing. Briefly: Test Example 2: herbicidal activity, application during weed generation in submerged conditions. Conditions: Eighteenth Table; application herbicide amount 320 g/ha. In outline: (§1)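 Paddy-type pot test: flooded soil, 4 cm depth, greenhouse 25–30 °C. Emulsion formulation diluted in water, applied to water surface at 1–2 leaf stage; rate expressed as g/ha. Read-out at 3 wk, 0–5 score.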

A further assay has as its system Monochoria vaginalis. The assay is described as above. Conditions: Eighteenth Table; application herbicide amount 320 g/ha. Summed up:
as §1

The subject of the next assay is Scirpus juncoides. The assay is described as above. The settings on record: Eighteenth Table; application herbicide amount 320 g/ha. In outline: as §1
The next assay concerns Abutilon theophrasti. Briefly: Test Example 4: herbicidal effect by application to foliage (diluvial soil, plastic box). The settings on record: application to foliage; for herbicidal effect, M (Abutilon theophrasti): 320 g/ha; for M: herbicidal effect on Abutilon theophrasti: application herbicide amount 320 g/ha. Summed up: (§2)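 Read-out is a 0–5 visual grade of herbicidal ratio (5: ≥90%, almost withered; 0: ≤5%) taken three weeks after treatment. Compound was applied as a diluted emulsion to stem and leaf parts of 14-day greenhouse-grown plants (25° C. to 30° C.) at rates expressed as g/ha.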

The next assay concerns Alopecurus myosuroides. The assay is described as above. Conditions: application to foliage; for herbicidal effect, J (Alopecurus myosuroides): 320 g/ha; for J: herbicidal effect on Alopecurus myosuroides: application herbicide amount 320 g/ha. In outline: as §2
The next assay concerns Amaranthus retroflexus. The assay is described as above. The settings on record: application to foliage; for herbicidal effect, N (Amaranthus retroflexus): 320 g/ha; for N: herbicidal effect on Amaranthus retroflexus: application herbicide amount 320 g/ha. In outline: as §2
Another assay deals with Apera spica-venti. The description is as above. Conditions: application to foliage; for herbicidal effect, L (Apera spica-venti.): 320 g/ha; for L: herbicidal effect on Apera spica-venti.: application herbicide amount 320 g/ha. Summed up:
as §2

Another assay relates to Avena fatua. The description is as above. The settings on record: application to foliage; for herbicidal effect, I (Avena fatua): 320 g/ha; for I: herbicidal effect on Avena fatua: application herbicide amount 320 g/ha. Summed up: as §2
Another assay deals with Chenopodium album. The description is as above. Conditions: application to foliage; for herbicidal effect, O (Chenopodium album): 320 g/ha; for O: herbicidal effect on Chenopodium album: application herbicide amount 320 g/ha. Summed up: as §2
In the next assay the test system is Digitaria ciliaris. The assay is described as above. Conditions: application to foliage; for herbicidal effect, F (Digitaria ciliaris): 320 g/ha; for F: herbicidal effect on Digitaria ciliaris: application herbicide amount 320 g/ha. Summed up: as §2
Assay [2] relates to Echinochloa crus-galli var. crus-galli. The description is as above. The settings on record: application to foliage; for herbicidal effect, H (Echinochloa crus-galli var. crus-galli): 320 g/ha; for H: herbicidal effect on Echinochloa crus-galli var. crus-galli: application herbicide amount 320 g/ha. In outline:
as §2

The test system of a further assay is Lolium multiflorum Lam. The description is as above. Conditions: application to foliage; for herbicidal effect, K (Lolium multiflorum Lam.): 320 g/ha; for K: herbicidal effect on Lolium multiflorum Lam.: application herbicide amount 320 g/ha. In outline: as §2
For the next assay, the system named is Setaria viridis. The assay is described as above. The settings on record: application to foliage; for herbicidal effect, G (Setaria viridis): 320 g/ha; for G: herbicidal effect on Setaria viridis: application herbicide amount 320 g/ha. In outline:
as §2

The subject of another assay is Stellaria media. The description is as above. Conditions: application to foliage; for herbicidal effect, P (Stellaria media): 320 g/ha; for P: herbicidal effect on Stellaria media: application herbicide amount 320 g/ha. In outline:
as §2

The subject of the next assay is Veronica persica. Described as above. Conditions: application to foliage; for herbicidal effect, R (Veronica persica): 320 g/ha; for R: herbicidal effect on Veronica persica: application herbicide amount 320 g/ha. In outline:
as §2

Consider `Cn1nnnc1NC(=O)c1ccc(C(F)(F)F)n2c(SCC#N)nnc12` [2-086], for which the “A (Echinochloa oryzicola Vasing.) herbicidal ratio grade” value in [1] is on record as 0 (Herbicidal ratio of 5% or less (almost no effect)). Further, the “C (Monochoria vaginalis) herbicidal ratio grade” value in the assay with Monochoria vaginalis was 1 (Herbicidal ratio of 5% or more and less than 20%). The “B (Scirpus juncoides) herbicidal ratio grade” value with Scirpus juncoides is 2 (Herbicidal ratio of 20% or more and less than 40%). Further, in the assay with Abutilon theophrasti, the “herbicidal effect, M (Abutilon theophrasti)” value is on record as 5 (Herbicidal ratio of 90% or more (almost completely withered)). The “herbicidal effect, J (Alopecurus myosuroides)” value in the assay on Alopecurus myosuroides was 1 (Herbicidal ratio of 5% or more and less than 20%). The “herbicidal effect, N (Amaranthus retroflexus)” value with Amaranthus retroflexus is 5 (Herbicidal ratio of 90% or more (almost completely withered)). Further, the “herbicidal effect, L (Apera spica-venti.)” value in the assay with Apera spica-venti. was 4 (Herbicidal ratio of 70% or more and less than 90%). Also, the “herbicidal effect, I (Avena fatua)” value with Avena fatua was 3 (Herbicidal ratio of 40% or more and less than 70%). Besides, in the assay on Chenopodium album, the “herbicidal effect, O (Chenopodium album)” value was 5 (Herbicidal ratio of 90% or more (almost completely withered)). The “herbicidal effect, F (Digitaria ciliaris)” value with Digitaria ciliaris is given as 5 (Herbicidal ratio of 90% or more (almost completely withered)). In addition, the “herbicidal effect, H (Echinochloa crus-galli var. crus-galli)” value in assay [2] is 5 (Herbicidal ratio of 90% or more (almost completely withered)). For the same compound, the “herbicidal effect, K (Lolium multiflorum Lam.)” value in the assay on Lolium multiflorum Lam. is 2 (Herbicidal ratio of 20% or more and less than 40%). Moreover, in the assay with Setaria viridis, the “herbicidal effect, G (Setaria viridis)” value is on record as 5 (Herbicidal ratio of 90% or more (almost completely withered)). Further, the “herbicidal effect, P (Stellaria media)” value in the assay with Stellaria media is 4 (Herbicidal ratio of 70% or more and less than 90%). Also, the “herbicidal effect, R (Veronica persica)” value with Veronica persica is given as 5 (Herbicidal ratio of 90% or more (almost completely withered)).

`COCCSc1nnc2c(C(=O)Nc3nnnn3C)ccc(C(F)(F)F)n12` [2-101]: the “A (Echinochloa oryzicola Vasing.) herbicidal ratio grade” value in assay [1] was 4 (Herbicidal ratio of 70% or more and less than 90%). The “C (Monochoria vaginalis) herbicidal ratio grade” value in the assay with Monochoria vaginalis was 5 (Herbicidal ratio of 90% or more (almost completely withered)). Besides, in the assay on Scirpus juncoides, the “B (Scirpus juncoides) herbicidal ratio grade” value was 4 (Herbicidal ratio of 70% or more and less than 90%). In addition, the “herbicidal effect, M (Abutilon theophrasti)” value in the assay with Abutilon theophrasti is recorded as 5 (Herbicidal ratio of 90% or more (almost completely withered)). In addition, the “herbicidal effect, J (Alopecurus myosuroides)” value in the assay on Alopecurus myosuroides is 3 (Herbicidal ratio of 40% or more and less than 70%). For the same compound, the “herbicidal effect, N (Amaranthus retroflexus)” value in the assay on Amaranthus retroflexus was 5 (Herbicidal ratio of 90% or more (almost completely withered)). Further, the “herbicidal effect, L (Apera spica-venti.)” value in the assay with Apera spica-venti. was 4 (Herbicidal ratio of 70% or more and less than 90%). For the same compound, the “herbicidal effect, I (Avena fatua)” value in the assay on Avena fatua is 3 (Herbicidal ratio of 40% or more and less than 70%). Moreover, the “herbicidal effect, O (Chenopodium album)” value in the assay with Chenopodium album is given as 5 (Herbicidal ratio of 90% or more (almost completely withered)). The “herbicidal effect, F (Digitaria ciliaris)” value in the assay with Digitaria ciliaris is on record as 5 (Herbicidal ratio of 90% or more (almost completely withered)). In assay [2], the “herbicidal effect, H (Echinochloa crus-galli var. crus-galli)” value is recorded as 5 (Herbicidal ratio of 90% or more (almost completely withered)). Moreover, the “herbicidal effect, K (Lolium multiflorum Lam.)” value in the assay on Lolium multiflorum Lam. is 3 (Herbicidal ratio of 40% or more and less than 70%). In addition, the “herbicidal effect, G (Setaria viridis)” value in the assay on Setaria viridis is recorded as 5 (Herbicidal ratio of 90% or more (almost completely withered)). Also, the “herbicidal effect, P (Stellaria media)” value in the assay with Stellaria media is given as 5 (Herbicidal ratio of 90% or more (almost completely withered)). Further, in the assay on Veronica persica, the “herbicidal effect, R (Veronica persica)” value is 5 (Herbicidal ratio of 90% or more (almost completely withered)).

As for `C=CCN(C)c1nnc2c(C(=O)Nc3nnco3)ccc(C(F)(F)F)n12` [1-172], the “A (Echinochloa oryzicola Vasing.) herbicidal ratio grade” value in assay [1] is 3 (Herbicidal ratio of 40% or more and less than 70%). Besides, in the assay on Monochoria vaginalis, the “C (Monochoria vaginalis) herbicidal ratio grade” value is 3 (Herbicidal ratio of 40% or more and less than 70%). Further, the “B (Scirpus juncoides) herbicidal ratio grade” value in the assay on Scirpus juncoides was 4 (Herbicidal ratio of 70% or more and less than 90%). Further, the “M: herbicidal effect on Abutilon theophrasti” value in the assay with Abutilon theophrasti is on record as 5 (Herbicidal ratio of 90% or more (almost completely withered)). In addition, in the assay on Alopecurus myosuroides, the “J: herbicidal effect on Alopecurus myosuroides” value was 1 (Herbicidal ratio of 5% or more and less than 20%). Further, in the assay on Amaranthus retroflexus, the “N: herbicidal effect on Amaranthus retroflexus” value is reported as 5 (Herbicidal ratio of 90% or more (almost completely withered)). In the assay on Apera spica-venti., the “L: herbicidal effect on Apera spica-venti.” value was 1 (Herbicidal ratio of 5% or more and less than 20%). Besides, the “I: herbicidal effect on Avena fatua” value in the assay with Avena fatua is 2 (Herbicidal ratio of 20% or more and less than 40%). Moreover, the “O: herbicidal effect on Chenopodium album” value with Chenopodium album is reported as 5 (Herbicidal ratio of 90% or more (almost completely withered)). For the same compound, in the assay with Digitaria ciliaris, the “F: herbicidal effect on Digitaria ciliaris” value is 5 (Herbicidal ratio of 90% or more (almost completely withered)). Further, the “H: herbicidal effect on Echinochloa crus-galli var. crus-galli” value in assay [2] was 5 (Herbicidal ratio of 90% or more (almost completely withered)). Also, in the assay on Lolium multiflorum Lam., the “K: herbicidal effect on Lolium multiflorum Lam.” value was 1 (Herbicidal ratio of 5% or more and less than 20%). Moreover, in the assay with Setaria viridis, the “G: herbicidal effect on Setaria viridis” value was 4 (Herbicidal ratio of 70% or more and less than 90%). In addition, the “P: herbicidal effect on Stellaria media” value with Stellaria media was 5 (Herbicidal ratio of 90% or more (almost completely withered)). Further, the “R: herbicidal effect on Veronica persica” value with Veronica persica was 4 (Herbicidal ratio of 70% or more and less than 90%).

In the case of `Cc1nnc(NC(=O)c2ccc(C(F)(F)F)n3c(SC4CCCC4)nnc23)o1` [1-154], the “A (Echinochloa oryzicola Vasing.) herbicidal ratio grade” value in assay [1] was 0 (Herbicidal ratio of 5% or less (almost no effect)). Moreover, the “C (Monochoria vaginalis) herbicidal ratio grade” value with Monochoria vaginalis is recorded as 0 (Herbicidal ratio of 5% or less (almost no effect)). In the assay with Scirpus juncoides, the “B (Scirpus juncoides) herbicidal ratio grade” value was 2 (Herbicidal ratio of 20% or more and less than 40%). For the same compound, the “M: herbicidal effect on Abutilon theophrasti” value in the assay with Abutilon theophrasti is 2 (Herbicidal ratio of 20% or more and less than 40%). Moreover, the “J: herbicidal effect on Alopecurus myosuroides” value in the assay on Alopecurus myosuroides is 0 (Herbicidal ratio of 5% or less (almost no effect)). Also, in the assay with Amaranthus retroflexus, the “N: herbicidal effect on Amaranthus retroflexus” value was 2 (Herbicidal ratio of 20% or more and less than 40%). In addition, in the assay with Apera spica-venti., the “L: herbicidal effect on Apera spica-venti.” value is reported as 0 (Herbicidal ratio of 5% or less (almost no effect)). Also, the “I: herbicidal effect on Avena fatua” value with Avena fatua is on record as 0 (Herbicidal ratio of 5% or less (almost no effect)). The “O: herbicidal effect on Chenopodium album” value with Chenopodium album is recorded as 5 (Herbicidal ratio of 90% or more (almost completely withered)). Also, the “F: herbicidal effect on Digitaria ciliaris” value in the assay with Digitaria ciliaris is 3 (Herbicidal ratio of 40% or more and less than 70%). The “H: herbicidal effect on Echinochloa crus-galli var. crus-galli” value in assay [2] was 3 (Herbicidal ratio of 40% or more and less than 70%). For the same compound, the “K: herbicidal effect on Lolium multiflorum Lam.” value in the assay on Lolium multiflorum Lam. is reported as 0 (Herbicidal ratio of 5% or less (almost no effect)). The “G: herbicidal effect on Setaria viridis” value with Setaria viridis is 2 (Herbicidal ratio of 20% or more and less than 40%). In addition, the “P: herbicidal effect on Stellaria media” value with Stellaria media was 4 (Herbicidal ratio of 70% or more and less than 90%). The “R: herbicidal effect on Veronica persica” value in the assay with Veronica persica was 0 (Herbicidal ratio of 5% or less (almost no effect)).
